Results as given in patent US20260207572A1, “METHODS AND COMPOSITIONS FOR TREATMENT OF SUBJECTS WITH HEPATIC IMPAIRMENTS” (ELEVAR THERAPEUTICS, INC., priority 2022, published 2026).
Like-named read-outs stand apart in the source and are kept apart here.

Tests used:
plasma protein [1] = assay: Phase 1 study: unbound plasma concentration and fraction unbound (protein binding); type: in vivo, human; details: 4 h, 200 mg single oral dose; for fraction unbound at 4 h: human, plasma, po, 200 mg, read-out: Fraction Unbound, Arithmetic Mean
[2] = as above; type: in vivo, human; details: human, plasma, po, 200 mg, 200 mg single oral dose
plasma protein [3] = details: cited from earlier work
[4] = Mild Hepatic Impairment, read-out: Fraction Unbound, Geometric Mean
[5] = Mild Hepatic Impairment, read-out: Fraction Unbound, Median
[6] = Mild Hepatic Impairment, read-out: Unbound Concentration, Arithmetic Mean
[7] = Mild Hepatic Impairment, read-out: Unbound Concentration, Geometric Mean
[8] = Mild Hepatic Impairment, read-out: Unbound Concentration, Median
[9] = Moderate Hepatic Impairment, read-out: Fraction Unbound, Geometric Mean
[10] = Moderate Hepatic Impairment, read-out: Fraction Unbound, Median
[11] = Moderate Hepatic Impairment, read-out: Unbound Concentration, Arithmetic Mean
[12] = Moderate Hepatic Impairment, read-out: Unbound Concentration, Geometric Mean
[13] = Moderate Hepatic Impairment, read-out: Unbound Concentration, Median
[14] = Normal Hepatic Function, read-out: Fraction Unbound, Geometric Mean
[15] = Normal Hepatic Function, read-out: Fraction Unbound, Median
[16] = Normal Hepatic Function, read-out: Unbound Concentration, Arithmetic Mean
[17] = Normal Hepatic Function, read-out: Unbound Concentration, Geometric Mean
[18] = Normal Hepatic Function, read-out: Unbound Concentration, Median

In the case of `N#CC1(c2ccc(NC(=O)c3cccnc3NCc3ccncc3)cc2)CCCC1` [Rivoceranib, N-[4-(1-cyanocyclopentyl)phenyl]-2-{[(pyridin-4-yl)methyl]amino} pyridine-3-carboxamide], the “Fraction Unbound, Arithmetic Mean” value (plasma protein [1]; Mild Hepatic Impairment) is reported as 2.39%, the fraction unbound at 4 h (plasma protein [1]; Mild Hepatic Impairment) is reported as 0.0239 ± 0.00639 and the fraction unbound at 4 h (plasma protein [1]; Moderate Hepatic Impairment) is reported as 0.0425 ± 0.022. For the same compound, the fraction unbound at 4 h (plasma protein [1]; Normal Hepatic Function) was 0.0265 ± 0.0119, the fraction unbound at 4 h [2, 4] was 0.0232 and the fraction unbound at 4 h [2, 5] was 0.0232. The concentration at 4 h [2, 6] was 3.78 ng/mL, the concentration at 4 h [2, 7] was 2.59 ng/mL and the concentration at 4 h [2, 8] was 2.37 ng/mL. For the same compound, the fraction unbound at 24 h ([2]; Mild Hepatic Impairment, read-out: Fraction Unbound, Arithmetic Mean) was 0.0201, the fraction unbound at 24 h [2, 4] was 0.0191 and the fraction unbound at 24 h [2, 5] was 0.0174. The concentration at 24 h [2, 6] was 0.63 ng/mL, the concentration at 24 h [2, 7] was 0.55 ng/mL and the concentration at 24 h [2, 8] was 0.65 ng/mL. The fraction unbound at 4 h [2, 9] was 0.0373, the fraction unbound at 4 h [2, 10] was 0.0419 and the concentration at 4 h [2, 11] was 4.73 ng/mL. The concentration at 4 h [2, 12] was 4.52 ng/mL, the concentration at 4 h [2, 13] was 4.15 ng/mL and the fraction unbound at 24 h ([2]; Moderate Hepatic Impairment, read-out: Fraction Unbound, Arithmetic Mean) was 0.022. It also gave a fraction unbound at 24 h [2, 9] of 0.021, a fraction unbound at 24 h [2, 10] of 0.021 and a concentration at 24 h [2, 11] of 1.07 ng/mL. It also gave a concentration at 24 h [2, 12] of 0.82 ng/mL, a concentration at 24 h [2, 13] of 0.82 ng/mL and a fraction unbound at 4 h [2, 14] of 0.0243. It also gave a fraction unbound at 4 h [2, 15] of 0.0212, a concentration at 4 h [2, 16] of 4.44 ng/mL and a concentration at 4 h [2, 17] of 3.62 ng/mL. The concentration at 4 h [2, 18] was 3.76 ng/mL, the fraction unbound at 24 h ([2]; Normal Hepatic Function, read-out: Fraction Unbound, Arithmetic Mean) was 0.0172 and the fraction unbound at 24 h [2, 14] was 0.0168. It also gave a fraction unbound at 24 h [2, 15] of 0.0155, a concentration at 24 h [2, 16] of 0.73 ng/mL and a concentration at 24 h [2, 17] of 0.68 ng/mL. For the same compound, the concentration at 24 h [2, 18] was 0.69 ng/mL and the plasma protein binding (plasma protein [3]) was 97%.
